The values below come from US10344279B2, “Methods for the prevention and the treatment of extracapillary glomerulonephritis” (INSERM (Institut National de la Sante et de la Recherche …, priority 2014, dated 2019).

The subject of one data set is primary podocytes. The data set can be described thus: Wound assay of podocyte migration. In kind it is cell-based, mouse. As to conditions: Stattic 2 μM, migration within 12 hours. As for the experimental part: After 4 days of primary culture, podocytes were trypsinized then plated into μ-Dish 35 mm high with Culture-Insert (Ibidi). Ibidi's wounding inserts were used for cell migration studies. The coverage of the 500-μm gap was assessed after 12 hours of culture and podocyte migration area was quantified using ImageJ software. The effects of HB-EGF (10 ng/mL, Preprotech) or AG1478 (1 μM, Calbiochem) or anti-mIL-6 monoclonal antibody MP5-20F3 (10 μg/mL, eBiosciences) or Stattic (2 μM, Calbiochem) on differentiated podocytes was applied during 16 hours. After stimulation, podocytes were scrapped in Phosphosafe buffer for protein extraction or in RLT buffer for total RNA extraction.

The next data set concerns p57. The data set can be described thus: p57 protein expression in transfected podocytes (western blot, immunofluorescence). It counts as cell-based, mouse. As to conditions: anti-miR-92a transfected podocytes. As for the experimental part: Deparaffinized kidney sections were incubated for 30 minutes at 95° C. in the target retrieval solution (S1699, Dako), then in peroxidase blocking reagent (S2001, Dako), blocked in PBS containing 5% BSA and immunostained against phospho-STAT3 (Tyr705) (Cell Signaling Technology) and phospho-STAT3 (Tyr705) (Millipore), STAT3 (Cell Signaling Technology), podocalyxin (R&D systems), Ki-67 (Abeam) and p57 (Santa Cruz Technology). […] For STAT3 and podocalyxin immunofluorescence, primary antibody incubation was followed by a secondary rabbit anti-goat IgG AF488-conjugated antibody (Invitrogen, 1:400) and a secondary rabbit anti-goat IgG AF594-conjugated antibody (Invitrogen, 1:400) respectively. Podocyte culture cells were immunostained against podocin (ab50339 Abeam), nephrin (ab58968 Abeam), WTI (ab15249 Abeam) or p57 (Santa Cruz Biotechnology). The nuclei were stained using DAPI. Images were obtained with an Axioimager Z1 apotome (Zeiss).
After extraction from glomeruli or podocytes with lysis buffer, proteins were quantified by BCA protein assay kit (iNtRON Biotechnology). Samples were resolved on 4-12% Bis-Tris Criterion XT gels (Bio-Rad) then transferred to a polyvinylidene difloride membrane. […] Protein loading was monitored by using the rat anti-tubulin antibody (Abeam). […] Densitometric analysis with ImageJ software was used for quantification. […]

For `O=[N+]([O-])c1ccc2c(c1)S(=O)(=O)C=C2` [Stattic], the results for the “migratory phenotype of podocytes” value in the data set on primary podocytes and in the data set on primary podocytes (listed as STAT3 inhibitor) were “inhibited” and “little or no effect”, respectively.

As to “anti-miR-92a: 2′O-methylated, end-phosphorothioated antagomir with 3′ cholesterol-TEG, SEQ ID NO: 8, 5′-CAGGCCGGGACAAGUGCAAUA-3′ (VBC biotech) (listed as RNA, chemistry not fully specified)”, the p57 expression entry in the data set with p57 was “increase”.
